From the supplement of paper PMC10307832

Columns and labels:
Assay in all cases: relative viability (nuclei count vs DMSO), 5 days (fraction); higher = more cells survive
[1] = compound: CC1=C(CC(=O)O)c2cc(F)ccc2/C1=C\c1ccc([S+](C)[O-])cc1 [Sulindac] + Nc1nc2[nH]cc(CCc3ccc(C(=O)N[C@@H](CCC(=O)O)C(=O)O)cc3)c2c(=O)[nH]1 [Pemetrexed] (partner 0.2 µM)
In short: (§1)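 Lung cancer cell lines in 1536-well plates got either a single drug or a fixed anchor-drug dose together with five library-drug doses (not always all listed) in √10 steps, by pin tool, on the day after seeding. Nuclei were counted after 5 days, and relative viability is the treated-to-vehicle ratio of nuclei counts. Values are medians of duplicate plates.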

[2] = compound: CN[C@@H]1C[C@H]2O[C@@](C)([C@@H]1OC)n1c3ccccc3c3c4c(c5c6ccccc6n2c5c31)C(=O)NC4 [Staurosporine] + CC(C)C[C@H](NC(=O)[C@H](Cc1ccccc1)NC(=O)c1cnccn1)B(O)O [Bortezomib] (partner 0.002 µM)
In short: as §1

[3] = compound: CN[C@@H]1C[C@H]2O[C@@](C)([C@@H]1OC)n1c3ccccc3c3c4c(c5c6ccccc6n2c5c31)C(=O)NC4 [Staurosporine] + CCNC(=O)c1noc(-c2cc(C(C)C)c(O)cc2O)c1-c1ccc(CN2CCOCC2)cc1 [Luminespib] (partner 0.01 µM)
In short: as §1

[4] = compound: O=c1[nH]cc(F)c(=O)[nH]1 [5-Fluorouracil] + CCNC(=O)c1noc(-c2cc(C(C)C)c(O)cc2O)c1-c1ccc(CN2CCOCC2)cc1 [Luminespib] (partner 0.01 µM)
In short: as §1

Cell Line	relative viability ([1]; first compound 0.08 µM)	relative viability ([1]; first compound 0.253 µM)	relative viability ([1]; first compound 0.8 µM)	relative viability ([1]; first compound 2.53 µM)	relative viability ([1]; first compound 8 µM)	relative viability ([2]; first compound 0.005 µM)	relative viability ([2]; first compound 0.01581 µM)	relative viability ([2]; first compound 0.05 µM)	relative viability ([2]; first compound 0.1581 µM)	relative viability ([2]; first compound 0.5 µM)	relative viability ([3]; first compound 0.005 µM)	relative viability ([3]; first compound 0.01581 µM)	relative viability ([3]; first compound 0.05 µM)	relative viability ([3]; first compound 0.1581 µM)	relative viability ([3]; first compound 0.5 µM)	relative viability ([4]; first compound 0.02 µM)	relative viability ([4]; first compound 0.2 µM)	relative viability ([4]; first compound 0.6325 µM)	relative viability ([4]; first compound 2 µM)
LCLC-97TM1	0.205	0.178	0.147	0.177	0.198	0.164	0.158	0.219	0.151	0.0852	0.829	0.416	0.338	0.268	0.221	0.627	0.808	0.613	0.334
LCLC-103H	0.458	0.45	0.505	0.44	0.491	1.03	0.613	0.364	0.274	0.251	0.8	0.369	0.157	0.18	0.177	0.951	0.999	0.521	0.28
LOU-NH91	0.305	0.358	0.413	0.423	0.374	0.519	0.461	0.54	0.369	0.374	0.355	0.279	0.209	0.289	0.212	0.37	0.355	0.332	0.277
LU99A	0.181	0.159	0.214	0.193	0.179	0.985	0.389	0.318	0.271	0.172	0.21	0.176	0.134	0.137	0.123	0.245	0.281	0.234	–
LXF-289	0.99	0.876	0.806	0.9	0.942	0.822	–	0.257	0.122	0.0797	0.584	0.13	0.246	0.0904	0.0899	0.701	0.435	0.251	0.238
NCI-H23	0.768	0.683	0.237	0.7	0.692	0.975	0.215	0.259	0.155	0.107	0.215	0.204	0.181	0.163	0.156	0.201	0.205	0.196	0.212
NCI-H322M	0.646	0.642	0.597	0.552	0.666	1.3	1.14	0.993	0.78	0.742	0.631	–	0.259	0.274	0.182	0.841	1	0.724	0.552
NCI-H441	0.251	0.255	0.286	0.244	0.253	0.391	0.209	0.212	0.133	0.126	0.36	0.216	0.195	0.231	0.148	0.447	0.39	0.384	0.242
NCI-H460	0.0577	0.0612	0.0559	0.0599	0.0635	1.08	0.733	0.463	0.0074	0.0085	0.0316	0.0208	0.0244	0.0122	0.0179	0.0365	0.0336	0.0342	0.0284
NCI-H520	0.893	0.613	0.488	0.642	0.813	0.716	0.128	0.307	0.207	0.117	0.194	0.309	0.233	0.212	0.185	0.19	0.236	0.19	0.21
NCI-H596	0.441	0.433	–	0.445	0.544	1.38	0.549	1	0.282	0.393	1.19	0.719	0.509	0.237	0.3	1	0.728	0.726	0.542
NCI-H647	0.212	0.165	0.169	0.182	0.208	0.532	0.164	0.285	0.0743	0.0533	0.128	0.174	0.0674	0.0695	0.0608	0.166	0.157	0.243	0.136
NCI-H650	1	0.88	0.845	0.932	1.09	0.504	0.283	0.315	0.212	0.206	0.474	0.248	0.235	0.11	0.092	0.766	0.533	0.348	0.277
NCI-H661	0.953	0.931	0.869	0.922	0.981	0.716	0.453	0.341	0.275	0.228	0.986	0.707	0.604	0.436	0.211	0.942	–	0.955	0.888
NCI-H838	0.248	0.255	0.233	0.24	0.258	0.289	0.0982	0.133	0.15	0.0919	0.247	0.135	0.138	0.107	0.113	0.261	0.245	0.209	0.16
NCI-H1355	1.02	1.05	0.965	1.02	1.13	1.09	0.693	0.259	0.202	0.209	0.591	0.278	0.212	0.209	0.191	0.644	0.57	0.287	0.246
NCI-H1437	0.375	0.321	0.326	0.315	0.413	0.356	0.167	0.294	0.0975	0.0786	1.05	–	0.774	0.367	0.26	0.706	0.324	0.313	0.202

Cell Line	relative viability ([1]; first compound 0.08 µM)	relative viability ([1]; first compound 0.253 µM)	relative viability ([1]; first compound 0.8 µM)	relative viability ([1]; first compound 2.53 µM)	relative viability ([1]; first compound 8 µM)	relative viability ([2]; first compound 0.005 µM)	relative viability ([2]; first compound 0.01581 µM)	relative viability ([2]; first compound 0.05 µM)	relative viability ([2]; first compound 0.1581 µM)	relative viability ([2]; first compound 0.5 µM)	relative viability ([3]; first compound 0.005 µM)	relative viability ([3]; first compound 0.01581 µM)	relative viability ([3]; first compound 0.05 µM)	relative viability ([3]; first compound 0.1581 µM)	relative viability ([3]; first compound 0.5 µM)	relative viability ([4]; first compound 0.02 µM)	relative viability ([4]; first compound 0.2 µM)	relative viability ([4]; first compound 0.6325 µM)	relative viability ([4]; first compound 2 µM)
NCI-H1563	0.736	0.748	0.683	0.758	0.945	0.655	0.571	0.661	0.501	0.438	0.54	0.481	0.504	0.446	0.408	0.49	0.478	0.499	0.488
NCI-H1650	0.443	0.391	0.349	0.377	0.385	0.205	0.179	0.197	0.179	0.194	0.168	0.18	0.183	0.16	0.169	0.213	0.185	0.246	0.211
NCI-H1651	0.766	0.626	0.581	0.569	0.613	0.997	0.772	0.661	0.368	0.349	0.793	0.614	0.459	0.173	0.116	1.02	0.764	0.588	0.466
NCI-H1666	0.924	0.852	0.818	0.858	0.878	0.638	0.468	0.493	0.29	0.189	0.758	0.582	0.604	0.38	0.279	0.992	0.639	0.419	0.44
NCI-H1734	0.477	0.421	0.439	0.44	0.452	0.741	0.316	0.251	0.127	–	0.112	0.0831	0.511	0.0656	0.0444	0.173	0.193	0.198	0.189
NCI-H1755	0.421	0.448	0.631	0.444	0.462	0.788	0.364	0.251	0.171	0.157	0.276	0.214	0.155	0.195	0.155	0.57	0.346	0.331	0.219
NCI-H1792	0.867	0.903	–	0.794	0.827	1.05	0.797	0.372	0.182	0.196	0.459	0.287	0.18	0.188	0.199	0.616	0.439	0.262	0.182
NCI-H1915	0.602	0.53	0.492	0.475	0.53	1.04	–	0.327	0.118	0.154	0.824	0.247	0.207	0.105	0.0895	0.658	0.855	0.699	0.597
NCI-H1975	0.316	0.297	0.245	0.304	0.313	0.22	0.144	0.143	0.129	–	0.159	0.155	0.131	0.169	0.146	0.302	0.217	0.397	0.237
NCI-H1993	0.704	0.575	0.648	0.638	0.551	–	0.44	0.463	0.483	0.315	0.75	0.532	0.51	0.494	0.303	0.768	0.682	0.664	0.595
NCI-H2009	1.07	1.02	1.03	1.01	1.25	0.278	0.147	0.165	0.0953	0.0887	0.357	0.271	0.17	0.114	0.149	1.18	1.12	1.12	0.645
NCI-H2023	0.267	0.226	0.186	0.196	0.244	0.612	0.19	0.181	0.0797	0.0526	0.343	0.228	0.109	0.088	0.045	0.844	0.154	0.106	0.0768
NCI-H2085	0.921	0.903	0.766	0.898	0.897	0.856	0.565	0.604	0.499	0.402	0.39	0.315	0.2	0.227	0.171	0.418	0.456	0.445	0.349
NCI-H2087	0.748	0.666	0.741	0.658	0.685	0.761	0.548	0.39	0.175	0.113	0.151	0.139	0.112	0.112	0.0949	0.168	0.162	0.16	0.142
NCI-H2126	0.774	0.68	0.658	0.692	0.699	1.1	0.817	0.777	0.371	0.387	0.547	0.318	0.252	0.207	0.207	0.788	0.371	0.302	0.292
NCI-H2228	0.376	0.445	0.289	0.371	0.319	0.782	0.421	0.419	0.227	0.118	0.0928	0.122	0.0907	0.0947	0.0857	0.158	0.156	0.145	0.18
